Converted amounts (≈) assume the structure as drawn.
How the values were obtained:
Staphylococcus aureus [1] = assay: Antibacterial activity against Staphylococcus aureus AD3 assessed as bacterial growth inhibition incubated for 24 hrs by broth dilution method; format: functional; settings: AD3, 24 h
Escherichia coli [2] = assay: Antibacterial activity against Escherichia coli 9-1 assessed as bacterial growth inhibition incubated for 24 hrs by broth dilution method; format: functional; settings: 9-1, 24 h
Escherichia coli [3] = assay: Antibacterial activity against Escherichia coli ATCC 25922 assessed as bacterial growth inhibition incubated for 24 hrs by broth dilution method; format: functional; settings: ATCC 25922, 24 h
Staphylococcus aureus [4] = assay: Antibacterial activity against methicillin-resistant Staphylococcus aureus ATCC 43300 assessed as bacterial growth inhibition incubated for 24 hrs by broth dilution method; format: functional; settings: ATCC 43300, 24 h
Staphylococcus aureus [5] = assay: Antibacterial activity against Staphylococcus aureus ATCC 29213 assessed as bacterial growth inhibition incubated for 24 hrs by broth dilution method; format: functional; settings: ATCC 29213, 24 h
[6] = MRT in ICR mouse at 10 mg/kg, iv by LC-MS/MS analysis; format: ADME, organism-based; settings: in vivo
Staphylococcus aureus [7] = assay: Antibacterial against methicillin-resistant Staphylococcus aureus ATCC 43300 assessed as post antibiotic effect time at 2 times MIC incubated for 2 hrs followed by compound washout and then incubated for 20 hrs onto MH agar plate; format: functional
Staphylococcus aureus [8] = assay: Antibacterial activity against methicillin-resistant Staphylococcus aureus infected in neutropenic thigh infection ICR/Swiss mouse model assessed reduction in colony forming unit in thigh at 20 mg/kg, iv administered 2 hrs post infection and measured at 24 hrs after drug dosage; format: functional
[9] = AUC (0 to t) in ICR mouse at 10 mg/kg, iv by LC-MS/MS analysis; format: ADME, organism-based; settings: in vivo
[10] = Cmax in ICR mouse at 10 mg/kg, iv by LC-MS/MS analysis; format: ADME, organism-based; set-up: dose 10 mg/kg, route intravenous; settings: in vivo
Staphylococcus aureus [11] = assay: Antibacterial against methicillin-resistant Staphylococcus aureus ATCC 43300 assessed as post antibiotic effect time at 2 times MIC incubated for 1 hr followed by compound washout and then incubated for 20 hrs onto MH agar plate; format: functional
[12] = AUC (0 to infinity) in ICR mouse at 10 mg/kg, iv by LC-MS/MS analysis; format: ADME, organism-based; set-up: dose 10 mg/kg, route intravenous, time infinity; settings: in vivo
Staphylococcus aureus [13] = assay: Antibacterial activity against methicillin-resistant Staphylococcus aureus infected in systemic infection ICR mouse model assessed as animal survival rate at 30 mg/kg, iv relative to control; format: functional
Staphylococcus aureus [14] = assay: (§1) Bactericidal activity against methicillin-resistant Staphylococcus aureus ATCC 43300 assessed as reduction in colony forming unit at 4 times MIC incubated for 3 hrs followed by compound dilution with saline and then incubated for 20 hrs on MH agar plate by time-kill kinetics assay; format: functional
[15] = Clearance in ICR mouse at 10 mg/kg, iv by LC-MS/MS analysis; format: ADME, organism-based; settings: in vivo
Staphylococcus aureus [16] = assay: Bactericidal activity against methicillin-resistant Staphylococcus aureus ATCC 43300 assessed as reduction in bacterial growth at 4 times MIC incubated for 24 hrs followed by compound dilution with saline and then incubated for 20 hrs on MH agar plate by time-kill kinetics assay relative to control; format: functional; set-up: scale not given: the % may be the effect or the level left
Staphylococcus aureus [17] = assay: Antibacterial against methicillin-resistant Staphylococcus aureus ATCC 43300 assessed as post antibiotic effect time at 4 times MIC incubated for 1 hr followed by compound washout and then incubated for 20 hrs onto MH agar plate; format: functional
[18] = Half life in ICR mouse at 10 mg/kg, iv by LC-MS/MS analysis; format: ADME, organism-based; settings: in vivo
Staphylococcus aureus [19] = assay: Antibacterial against methicillin-resistant Staphylococcus aureus ATCC 43300 assessed as post antibiotic effect time at 4 times MIC incubated for 2 hrs followed by compound washout and then incubated for 20 hrs onto MH agar plate; format: functional
[20] = Tmax in ICR mouse at 10 mg/kg, iv by LC-MS/MS analysis; format: ADME, organism-based; settings: in vivo
Staphylococcus aureus [21] = assay: as §1, with “assay relative to control” for “assay”; format: functional; set-up: scale not given: the % may be the effect or the level left
Staphylococcus aureus [22] = assay: Bactericidal activity against methicillin-resistant Staphylococcus aureus ATCC 43300 assessed as reduction in colony forming unit at 4 times MIC incubated for 24 hrs followed by compound dilution with saline and then incubated for 20 hrs on MH agar plate by time-kill kinetics assay; format: functional

In the case of `C=C[C@]1(C)C[C@@H](OC(=O)CSc2ccccc2NC(=O)CN2CCN(c3cccc(Cl)c3)CC2)[C@]2(C)[C@H](C)CC[C@]3(CCC(=O)[C@H]32)[C@@H](C)[C@@H]1O`, the MIC (Staphylococcus aureus [1]) is reported as 2 µg/mL (≈ 2.77 µM), the MIC (Escherichia coli [2]) is reported as > 32 µg/mL and the MIC (Escherichia coli [3]) is reported as > 32 µg/mL. The MIC (Staphylococcus aureus [4]) was 1 µg/mL (≈ 1.38 µM) and the MIC (Staphylococcus aureus [5]) was 1 µg/mL (≈ 1.38 µM).
For `C=C[C@]1(C)C[C@@H](OC(=O)CSc2ccccc2NC(=O)CN2CCC(O)C2)[C@]2(C)[C@H](C)CC[C@]3(CCC(=O)[C@H]32)[C@@H](C)[C@@H]1O` (some centres not stated), the MIC (Staphylococcus aureus [1]) was 0.25 µg/mL (≈ 0.408 µM), the MIC (Escherichia coli [2]) was > 32 µg/mL and the MIC (Escherichia coli [3]) was > 32 µg/mL. The MIC (Staphylococcus aureus [4]) was 0.125 µg/mL (≈ 0.204 µM) and the MIC (Staphylococcus aureus [5]) was 0.25 µg/mL (≈ 0.408 µM).
With `C=C[C@]1(C)C[C@@H](OC(=O)CSc2ccccc2NC(=O)CN2CCN(c3cccc(C)c3)CC2)[C@]2(C)[C@H](C)CC[C@]3(CCC(=O)[C@H]32)[C@@H](C)[C@@H]1O` the MIC (Staphylococcus aureus [1]) was > 8 µg/mL, the MIC (Escherichia coli [2]) was > 32 µg/mL and the MIC (Escherichia coli [3]) was > 32 µg/mL. The MIC (Staphylococcus aureus [4]) was > 8 µg/mL and the MIC (Staphylococcus aureus [5]) was > 8 µg/mL.
Work on `C=C[C@]1(C)C[C@@H](OC(=O)CSc2ccccc2NC(=O)CN2CCOCC2)[C@]2(C)[C@H](C)CC[C@]3(CCC(=O)[C@H]32)[C@@H](C)[C@@H]1O` yielded an MIC (Staphylococcus aureus [1]) of 0.125 µg/mL (≈ 0.204 µM), an MRT [6] of 36.6 min and a Time (Staphylococcus aureus [7]) of 2.64 h. For the same compound, the Activity (Staphylococcus aureus [8]) was 1.4 log10CFU/ml, the AUC(0-t) [9] was 470 ng·h/mL and the Cmax [10] was 1760 ng/mL. For the same compound, the Time (Staphylococcus aureus [11]) was 1.62 h, the AUC(0-inf) [12] was 480 ng·h/mL and the Activity (Staphylococcus aureus [13]) was 60%. For the same compound, the Activity (Staphylococcus aureus [14]) was 2.19 log10CFU/ml, the MIC (Escherichia coli [2]) was > 32 µg/mL and the clearance [15] was 361 mL/min/kg. The MIC (Escherichia coli [3]) was > 32 µg/mL, the Activity (Staphylococcus aureus [16]) was 100% and the MIC (Staphylococcus aureus [4]) was 0.06 µg/mL (≈ 0.0979 µM). For the same compound, the Time (Staphylococcus aureus [17]) was 2.05 h, the half-life [18] was 413 min and the Time (Staphylococcus aureus [19]) was 3.47 h. It also gave an MIC (Staphylococcus aureus [5]) of 0.06 µg/mL (≈ 0.0979 µM) and a Tmax [20] of 4.98 min.
In the case of `C=C[C@]1(C)C[C@@H](OC(=O)CSc2ccccc2NC(=O)CN2CCN(c3ccc([N+](=O)[O-])cc3)CC2)[C@]2(C)[C@H](C)CC[C@]3(CCC(=O)[C@H]32)[C@@H](C)[C@@H]1O`, the MIC (Staphylococcus aureus [1]) is reported as 2 µg/mL (≈ 2.73 µM), the MIC (Escherichia coli [2]) is reported as > 32 µg/mL and the MIC (Escherichia coli [3]) is reported as > 32 µg/mL. For the same compound, the MIC (Staphylococcus aureus [4]) was 2 µg/mL (≈ 2.73 µM) and the MIC (Staphylococcus aureus [5]) was 4 µg/mL (≈ 5.46 µM).
In the case of `C=C[C@]1(C)C[C@@H](OC(=O)CSc2ccccc2NC(=O)CN2CCN(c3ccccc3F)CC2)[C@]2(C)[C@H](C)CC[C@]3(CCC(=O)[C@H]32)[C@@H](C)[C@@H]1O`, the MIC (Staphylococcus aureus [1]) is reported as 1 µg/mL (≈ 1.42 µM), the MIC (Escherichia coli [2]) is reported as > 32 µg/mL and the MIC (Escherichia coli [3]) is reported as > 32 µg/mL. For the same compound, the MIC (Staphylococcus aureus [4]) was 2 µg/mL (≈ 2.83 µM) and the MIC (Staphylococcus aureus [5]) was 8 µg/mL (≈ 11.3 µM).
With `C=C[C@]1(C)C[C@@H](OC(=O)CSc2ccccc2NC(=O)CN2CCN(c3cccc([N+](=O)[O-])c3)CC2)[C@]2(C)[C@H](C)CC[C@]3(CCC(=O)[C@H]32)[C@@H](C)[C@@H]1O` the MIC (Staphylococcus aureus [1]) was 4 µg/mL (≈ 5.46 µM), the MIC (Escherichia coli [2]) was > 32 µg/mL and the MIC (Escherichia coli [3]) was > 32 µg/mL. The MIC (Staphylococcus aureus [4]) was 4 µg/mL (≈ 5.46 µM) and the MIC (Staphylococcus aureus [5]) was 4 µg/mL (≈ 5.46 µM).
With `C=C[C@]1(C)C[C@@H](OC(=O)CSc2ccccc2NC(=O)CN2CCN(c3ccccc3O)CC2)[C@]2(C)[C@H](C)CC[C@]3(CCC(=O)[C@H]32)[C@@H](C)[C@@H]1O` the MIC (Staphylococcus aureus [1]) was 0.5 µg/mL (≈ 0.71 µM), the MIC (Escherichia coli [2]) was > 32 µg/mL and the MIC (Escherichia coli [3]) was > 32 µg/mL. It also gave an MIC (Staphylococcus aureus [4]) of 1 µg/mL (≈ 1.42 µM) and an MIC (Staphylococcus aureus [5]) of 2 µg/mL (≈ 2.84 µM).
With `C=C[C@]1(C)C[C@@H](OC(=O)CSc2ccccc2NC(=O)CN2CCN(c3ccccc3[N+](=O)[O-])CC2)[C@]2(C)[C@H](C)CC[C@]3(CCC(=O)[C@H]32)[C@@H](C)[C@@H]1O` the MIC (Staphylococcus aureus [1]) was > 8 µg/mL, the MIC (Escherichia coli [2]) was > 32 µg/mL and the MIC (Escherichia coli [3]) was > 32 µg/mL. For the same compound, the MIC (Staphylococcus aureus [4]) was 4 µg/mL (≈ 5.46 µM) and the MIC (Staphylococcus aureus [5]) was > 8 µg/mL.
In the case of `C=C[C@]1(C)C[C@@H](OC(=O)CSc2ccccc2NC(=O)CN2CCCC2)[C@]2(C)[C@H](C)CC[C@]3(CCC(=O)[C@H]32)[C@@H](C)[C@@H]1O`, the MIC (Staphylococcus aureus [1]) is reported as 0.125 µg/mL (≈ 0.209 µM), the MIC (Escherichia coli [2]) is reported as > 32 µg/mL and the MIC (Escherichia coli [3]) is reported as > 32 µg/mL. The MIC (Staphylococcus aureus [4]) was 0.25 µg/mL (≈ 0.419 µM) and the MIC (Staphylococcus aureus [5]) was 0.125 µg/mL (≈ 0.209 µM).
In the case of `C=C[C@]1(C)C[C@@H](OC(=O)CSc2ccccc2NC(=O)CN2CCN(c3ccc(OC)cc3)CC2)[C@]2(C)[C@H](C)CC[C@]3(CCC(=O)[C@H]32)[C@@H](C)[C@@H]1O`, the MIC (Staphylococcus aureus [1]) is reported as 0.5 µg/mL (≈ 0.696 µM), the MIC (Escherichia coli [2]) is reported as > 32 µg/mL and the MIC (Escherichia coli [3]) is reported as > 32 µg/mL. It also gave an MIC (Staphylococcus aureus [4]) of 2 µg/mL (≈ 2.79 µM) and an MIC (Staphylococcus aureus [5]) of 4 µg/mL (≈ 5.57 µM).
With `C=C[C@]1(C)C[C@@H](OC(=O)CSCCN(CC)CC)[C@]2(C)[C@H](C)CC[C@]3(CCC(=O)[C@H]32)[C@@H](C)[C@@H]1O` [TIAMULIN] the MIC (Staphylococcus aureus [1]) was 0.5 µg/mL (≈ 1.01 µM), the Time (Staphylococcus aureus [7]) was 1.65 h and the Activity (Staphylococcus aureus [8]) was 0.59 log10CFU/ml. It also gave a Time (Staphylococcus aureus [11]) of 1.53 h, an Activity (Staphylococcus aureus [13]) of 20% and an Activity (Staphylococcus aureus [14]) of 1.54 log10CFU/ml. For the same compound, the Activity (Staphylococcus aureus [21]) was 97%, the MIC (Staphylococcus aureus [4]) was 0.5 µg/mL (≈ 1.01 µM) and the Activity (Staphylococcus aureus [22]) was 1.9 log10CFU/ml. For the same compound, the Time (Staphylococcus aureus [17]) was 1.9 h, the Time (Staphylococcus aureus [19]) was 2.04 h and the MIC (Staphylococcus aureus [5]) was 1 µg/mL (≈ 2.03 µM).

Reference: ChEMBL document CHEMBL4359884, “Design, synthesis and biological evaluation of novel pleuromutilin derivatives possessing acetamine phenyl linker” (Eur J Med Chem, 2019)
